Assay results published in patent publication US20200392116A1, “SUBSTITUTED HETEROCYCLES AS c-MYC TARGETING AGENTS” (NORTHWESTERN UNIVERSITY, priority 2019, published 2020).

Assay: Potency code of Table 2 (assay not stated)

Compound | Potency code
Cn1nc(C(F)(F)F)cc1-c1ccc(OCCCNC(=O)OC(C)(C)C)c(-c2ccc(Cl)c(C(F)(F)F)c2)c1O [NUCC-0201657] | + (>40 +)
C#CCC(N=[N+]=[N-])C(=O)NCCOc1ccc(-c2cc(C(F)(F)F)n[nH]2)c(O)c1-c1cncc(C(F)(F)F)c1 (centres unmarked) [NUCC-0201697] | + (>40 +)
Oc1c(-c2cc(C(F)(F)F)[nH]n2)ccc(OCc2ccc(Cl)cc2)c1-c1cc(C(F)(F)F)cc(C(F)(F)F)c1 [NUCC-0196362] | ++ (30-40 ++)
Cn1nc(C(F)(F)F)cc1-c1ccc(OCCCN)c(-c2ccc(Cl)c(C(F)(F)F)c2)c1O [NUCC-0201642] | + (>40 +)
Cn1nc(C(F)(F)F)cc1-c1ccc(OCc2ccc([N+](=O)[O-])cc2)c(-c2cc(C(F)(F)F)cc(C(F)(F)F)c2)c1O [NUCC-0201648] | + (>40 +)
Cn1nc(C(F)(F)F)cc1-c1ccc(N)cn1 [NUCC-0200688] | + (>40 +)
Oc1cc(Nc2ccc(Cl)c(Cl)c2)ccc1-c1cc(C(F)(F)F)[nH]n1 [NUCC-0200721] | ++++ (<10 ++++)
Cn1nc(-c2ccc(OCc3ccc(Cl)cc3)c(-c3ccc(C#N)cc3)c2O)cc1C(F)(F)F [NUCC-0198393] | + (>40 +)
COc1ccc(-c2c(-c3ccc(OCc4ccc(Cl)cc4)cc3O)n[nH]c2C(F)(F)F)cc1OC [NUCC-0196283] | ++++ (<10 ++++)
Oc1c(-c2cc(C(F)(F)F)[nH]n2)ccc(OCc2ccc(Cl)cc2)c1-c1ccc(C(F)(F)F)cc1Cl [NUCC-0200737] | + (>40 +)
Cn1nc(-c2ccc(OCc3ccc(Cl)cc3)c(-c3ccc(C(F)(F)F)c(Cl)c3)c2O)cc1C(F)(F)F [NUCC-0200729] | + (>40 +)
Cn1nc(-c2ccc(OCCCNC(=O)OC(C)(C)C)c(-c3ccc(Cl)c(C(F)(F)F)c3)c2O)cc1C(F)(F)F [NUCC-0201658] | ++ (30-40 ++)
CCc1ccc(Oc2c(-c3ccc(OCc4cccc(Cl)c4)cc3O)nn(C)c2C(F)(F)F)cc1 [NUCC-0196296] | + (>40 +)
CCCCOc1ccc(-c2cc(C(F)(F)F)nn2C)c(O)c1-c1cncc(C#N)c1 [NUCC-0201638] | + (>40 +)
Cn1nc(C(F)(F)F)cc1-c1ccc(OCc2ccc(Cl)cc2)cn1 [NUCC-0200690] | + (>40 +)
CN/N=C(/C)c1cccc(-c2c(OCc3ccc(Cl)cc3)ccc(-c3cc(C(F)(F)F)[nH]n3)c2O)c1 [NUCC-0198403] | + (>40 +)
Cn1nc(C(F)(F)F)cc1-c1ccc(OCc2ccc(C#N)cc2)c(-c2ccc(Cl)c(C(F)(F)F)c2)c1O [NUCC-0201913] | + (>40 +)
Cn1cc(-c2cccc(Cl)c2)c(-c2ccc(OCc3ccc(Cl)cc3)cc2O)n1 [NUCC-0196351] | + (>40 +)
C#CCC(N=[N+]=[N-])C(=O)Nc1ccc(COc2ccc(-c3cc(C(F)(F)F)nn3C)c(O)c2-c2cncc(C(F)(F)F)c2)cc1 (centres unmarked) [NUCC-0201698] | + (>40 +)
Oc1cc(OCc2ccc(Cl)cc2)ccc1-c1n[nH]cc1-c1ccccc1 [NUCC-0198293] | + (>40 +)
Cn1nc(-c2ccc(OCc3ccc(Cl)cc3)c(-c3cncc(C#N)c3)c2O)cc1C(F)(F)F [NUCC-0201633] | + (>40 +)
Cn1nc(-c2ccc(OCc3ccc(Cl)cc3)c(-c3ccc(F)cc3)c2O)cc1C(F)(F)F [NUCC-0196348] | +++ (10-30 +++)
CC(C)CCOc1ccc(-c2cc(C(F)(F)F)nn2C)c(O)c1-c1cncc(C(F)(F)F)c1 [NUCC-0201206] | ++++ (<10 ++++)
Cn1nc(-c2ccc(OCCc3ccc(Cl)cc3)c(-c3cc(C(F)(F)F)cc(C(F)(F)F)c3)c2O)cc1C(F)(F)F [NUCC-0201026] | + (>40 +)

Compound | Potency code
Cn1nc(-c2ccc(N)cc2O)cc1C(F)(F)F [NUCC-0200498] | + (>40 +)
Oc1c(-c2cc(C(F)(F)F)[nH]n2)ccc(OCc2ccc(Cl)cc2)c1-c1ccc(C(F)(F)F)cc1 [NUCC-0200725] | + (>40 +)
Cc1cc(C)cc(-c2c[nH]nc2-c2ccc(OCc3ccc(Cl)cc3)cc2O)c1 [NUCC-0198352] | + (>40 +)
Cn1nc(C(F)(F)F)cc1-c1ccc(OCc2ccc(F)cc2)c(-c2cc(C(F)(F)F)cc(C(F)(F)F)c2)c1O [NUCC-0201034] | + (>40 +)
Oc1cc(OCc2ccc(Cl)cc2)ccc1-c1cc(C(F)(F)F)n(Cc2ccccc2)n1 [NUCC-0200499] | + (>40 +)
CCc1ccc(Oc2c(-c3ccc(OCc4ccc(Cl)c(Cl)c4)cc3O)nn(C)c2C(F)(F)F)cc1 [NUCC-0196354] | + (>40 +)
Cn1cc(-c2ccc(OCc3ccc(Cl)cc3)cc2Cl)c(C(F)(F)F)n1 [NUCC-0200814] | + (>40 +)
Cn1nc(C(F)(F)F)cc1-c1ccc(O)c(-c2cc(C(F)(F)F)cc(C(F)(F)F)c2)c1O [NUCC-0200723] | ++ (30-40 ++)
Cc1ccc(C)c(Oc2cn(C)nc2-c2ccc(OCc3ccc(Cl)cc3)cc2O)c1 [NUCC-0196285] | + (>40 +)
Cn1nc(C(F)(F)F)cc1-c1ccc(OCc2ccc(Cl)cc2)cc1F [NUCC-0200977] | + (>40 +)
CCc1ccc(Oc2c(-c3ccc(OCc4cccc(OC)c4)cc3O)nn(C)c2C(F)(F)F)cc1 [NUCC-0196298] | ++ (30-40 ++)
COc1ccc(-c2cn(C)nc2-c2ccc(OCc3ccc(Cl)cc3)cc2O)cc1 [NUCC-0198305] | + (>40 +)
COc1cccc(-c2c(-c3ccc(OCc4ccc(Cl)cc4)cc3O)nn(C)c2C(F)(F)F)c1 [NUCC-0198311] | + (>40 +)
CCc1nn(C)c(-c2ccc(OCc3ccc(Cl)cc3)cc2O)c1-c1ccccc1 [NUCC-0198302] | + (>40 +)
Cn1nc(C(F)(F)F)cc1-c1ccc(OCc2ccc(Cl)cc2)c(-c2cccnc2)c1O [NUCC-0196365] | + (>40 +)
Cn1cc(-c2cc(C(F)(F)F)cc(C(F)(F)F)c2)c(-c2ccc(OCc3ccc(Cl)cc3)cc2O)n1 [NUCC-0198319] | + (>40 +)
CCc1ccc(Oc2c[nH]nc2-c2ccc(OCc3cnn(C)c3)cc2O)cc1 [NUCC-0176246] | + (>40 +)
Cc1[nH]nc(-c2ccc(OCc3ccc(Cl)cc3)cc2O)c1Oc1ccccc1 [NUCC-0176253] | + (>40 +)
[N-]=[N+]=NCCOCCOCCOCCOCC(=O)Nc1ccc(COc2ccc(-c3cc(C(F)(F)F)n[nH]3)c(O)c2-c2cc(C(F)(F)F)cc(C(F)(F)F)c2)cc1 [NUCC-0201200] | + (>40 +)
Cn1cc(-c2ccc(OCc3ccc(Cl)cc3)cc2C=O)c(C(F)(F)F)n1 [NUCC-0200815] | + (>40 +)
CCc1ccc(Oc2c(-c3ccc(O)cc3O)n[nH]c2C(F)(F)F)cc1 [NUCC-0198406] | ++++ (<10 ++++)
Oc1cc(Nc2ccc(Cl)cc2)ccc1-c1cc(C(F)(F)F)[nH]n1 [NUCC-0200491] | ++++ (<10 ++++)
Cc1ccccc1-c1c[nH]nc1-c1ccc(OCc2ccc(Cl)cc2)cc1O [NUCC-0198355] | + (>40 +)
CCc1ccc(Oc2c[nH]nc2-c2ccc(OCc3ccncc3)cc2O)cc1 [NUCC-0176254] | + (>40 +)

Compound | Potency code
CCc1ccc(Oc2c[nH]nc2-c2ccc(OCCc3ccc(F)cc3)cc2O)cc1 [NUCC-0176258] | + (>40 +)
CCc1[nH]nc(-c2ccc(OCc3ccc(Cl)cc3)cc2O)c1-c1cccc(OC)c1 [NUCC-0198315] | + (>40 +)
Oc1cc(OCc2ccccc2)ccc1-c1n[nH]cc1Oc1ccccc1 [NUCC-0176255] | + (>40 +)
CCc1ccc(Oc2c(-c3ccc(OCc4cccc(OC)c4)cc3O)n[nH]c2C(F)(F)F)cc1 [NUCC-0196297] | + (>40 +)
Cn1nc(C(F)(F)F)cc1-c1ccc(OCCCNC(=O)OC(C)(C)C)c(-c2cncc(C(F)(F)F)c2)c1O [NUCC-0201655] | + (>40 +)
Oc1ccccc1C1=NNC(c2ccccc2)C1 (centres unmarked) [NUCC-0200685] | + (>40 +)
CCCCOc1ccc(-c2cc(C(F)(F)F)nn2C)c(O)c1-c1cncc(C(F)(F)F)c1 [NUCC-0201204] | +++ (10-30 +++)
COc1ccc(-c2c[nH]nc2-c2ccc(OCc3ccc(Cl)cc3)cc2O)cc1 [NUCC-0198304] | + (>40 +)
COc1ccccc1-c1cn(C)nc1-c1ccc(OCc2ccc(Cl)cc2)cc1O [NUCC-0198358] | + (>40 +)
CCc1ccc(Oc2c(-c3ccccc3O)nn(C)c2C(F)(F)F)cc1 [NUCC-0200684] | + (>40 +)
Cn1nc(-c2ccc(Nc3ccc(NC=O)cc3)cc2O)cc1C(F)(F)F [NUCC-0200564] | + (>40 +)
Cn1nc(C(F)(F)F)cc1-c1ccc(O)cn1 [NUCC-0200687] | + (>40 +)
C#CCCC(=O)NCCCOc1ccc(-c2cc(C(F)(F)F)n[nH]2)c(O)c1-c1ccc(Cl)c(C(F)(F)F)c1 [NUCC-0201659] | + (>40 +)
C#CCOc1cccc2c1C(=O)N(C1CCC(=O)NC1=O)C2=O (centres unmarked) [NUCC-0201705] | + (>40 +)
Oc1cc(NCc2ccc(Cl)cc2)ccc1-c1cc(C(F)(F)F)[nH]n1 [NUCC-0200493] | + (>40 +)
COc1cccc(-c2cn(C)nc2-c2ccc(OCc3ccc(Cl)cc3)cc2O)c1 [NUCC-0198326] | + (>40 +)
Oc1cc(OCc2ccc(Cl)cc2)ccc1-c1n[nH]c(C(F)(F)F)c1-c1ccccc1 [NUCC-0198295] | ++++ (<10 ++++)
CC(C)(C)OC(=O)NCCOc1ccc(-c2cc(C(F)(F)F)n[nH]2)c(O)c1-c1cncc(C(F)(F)F)c1 [NUCC-0201644] | + (>40 +)
Oc1c(-c2cc(C(F)(F)F)[nH]n2)ccc(OCc2ccc(Cl)cc2)c1C1CC1 [NUCC-0201910] | + (>40 +)
COc1ccc(COc2ccc(-c3cc(C(F)(F)F)n(C)n3)c(O)c2-c2cc(C(F)(F)F)cc(C(F)(F)F)c2)cc1 [NUCC-0201043] | + (>40 +)
CCc1ccc(Oc2c(-c3ccc(OCc4ccc(OC)cc4)cc3O)n[nH]c2C(F)(F)F)cc1 [NUCC-0196359] | + (>40 +)
Cn1cc(-c2ccc(OCc3ccc(Cl)cc3)cc2CO)c(C(F)(F)F)n1 [NUCC-0200813] | + (>40 +)
Cn1nc(-c2ccc(OCc3ccc(Cl)cc3)cc2O)c(Oc2ccccc2Cl)c1C(F)(F)F [NUCC-0196304] | +++ (10-30 +++)
